{"source": "patent US20110045032A1", "about": "(priority 2001, published 2011)", "format_in_all_cases": "in vivo", "key": {"[1]": {"tested_on": "dust mite-sensitized rabbits", "assay": "BALF inflammation, DHEA-S vs Pulmicort vs saline (Example 27)", "protocol": "(§1) This follow-up study compared the effects of DHEA-S and Puimicort® (budesonide inhalation suspension) on allergen-induced bronchial hyperresponsiveness (BHR) to histamine and pulmonary inflammation in dust mite-sensitized rabbits. The study included 18 animals divided into 3 treatment groups: saline, DHEA-S, and Puimicort. The animals were treated for once per day for 5 consecutive days via nebulization through a pediatric facemask covering the nose and mouth. Treatments were DHEA-S, 10 mg/day (5 mg/ml), Pulmicort Respules, 0.5 mg/day (0.5 mg/2 ml, note: this is the standard human dose) or saline (2 ml). A dust mite challenge was performed on day 4, and development of airway inflammation was assessed 6 hours and 30 hours after dust mite challenge. Histamine sensitivity was assessed 30 hours after challenge (day 5) and the lungs removed for histology."}, "[2]": {"tested_on": "dust mite-sensitized rabbits", "assay": "Bronchial hyperresponsiveness to histamine (Example 27)", "protocol": "as §1\nThere was an increase in the area under the curve of 17.42, which means the animals became more sensitive to histamine following allergen exposure. […] The resulting change in the area under the curve was −4.52 and −6.70 for DHEA-S and Puimicort, respectively, this means that animals treated with DHEA-S or Pulmicort were less sensitive to histamine following allergen exposure."}, "[3]": {"assay": "Acute inhalation toxicity in rats", "conditions": "rat, in vivo, inhaled; preclinical toxicology studies; not achieved at this dose; read-out: maximum tolerated dose", "protocol": "(§2) Other findings were minor in nature and detailed in the reports that follow. Therefore, nebulization of an aqueous solution was determined to be feasible but not practical due to the inability to achieve a sufficient safety factor to support clinical trials."}, "rats": {"tested_on": "rats", "assay": "Acute inhalation toxicity in rats", "conditions": "inhalation", "protocol": "as §2"}, "[4]": {"conditions": "6 hours after allergen challenge, compared to Pulmicort"}}, "data": [{"smiles": "CC12CCC3C(CC=C4CC(OS(=O)(=O)[O-])CCC43C)C1CCC2=O.[Na+]", "note": "(centres unmarked) [DHEA-S, Dehydroepiandrosterone sulfate]", "values": [{"measurement": "number of eosinophils in BALF", "setting": "[1]; 6 hours after allergen challenge", "value": "tended to decrease"}, {"measurement": "decrease of epithelial shedding", "setting": "[1]; [4]", "value": 54, "unit": "%"}, {"measurement": "reduction of number of neutrophils in the BALF", "setting": "[1]; [4]", "value": 91, "unit": "%"}, {"measurement": "reduction of cellular influx of cells into the BALF", "setting": "[1]; 6 hours after allergen challenge, compared to Pulmicort, DHEA-S 10 mg/day nebulized, 5 days", "value": 62, "unit": "%"}, {"measurement": "allergen-induced increase in neutrophils in BALF", "setting": "[1]; 6 hours or 24 hours after allergen challenge", "value": "no allergen-induced increase in neutrophils"}, {"measurement": "number of eosinophils in BALF", "setting": "[1]; 24 hours after allergen challenge", "value": "significant elevation"}, {"measurement": "total number of cells in the BALF compared to pre-challenge value", "setting": "[1]; six hours following allergen challenge", "value": "did not"}, {"measurement": "reduction of eosinophilic inflammation compared with budesonide", "setting": "[1]; summary statement", "value": "at least equivalent to budesonide"}, {"measurement": "reduction of neutrophilic inflammation compared with budesonide", "setting": "[1]; summary statement", "value": "far superior"}, {"measurement": "change in the area under the histamine dose-response (resistance) curve", "setting": "[2]", "value": "−4.52"}, {"measurement": "histamine response curve", "setting": "[2]; 30 hours after challenge", "value": "tended to shift the histamine response curve downward"}, {"measurement": "MTD", "setting": "[3]", "value": "> 11", "unit": "mg/kg/day"}, {"measurement": "maximum tolerated dose", "setting": "rats", "value": "could not be achieved"}, {"measurement": "adverse effects to the respiratory tract", "setting": "rats; up to the maximum feasible dose", "value": "did not produce any adverse affects"}]}]}
